Legend:
KRas G12C = biological target: T1, KRas G12C (Homo sapiens, UniProt P01116, G12C); test: KRas binding assay, TR-FRET displacement of Cy5 labelled tracer; conditions: 60-minute incubation at room temperature, 1% DMSO, pH 7.5
T1 construct: Biotinylated KRas (corresponding to amino acids 1-169, produced at Accelegan Inc.); biotin (biotinylated); purchased Accelegan Inc
Procedure, shortened: (§1)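 Compound competes with tracer for biotin-labelled KRas (amino acids 1-169) bound to terbium-streptavidin. Incubation runs 60 minutes at room temperature, final DMSO 1%. IC50 values derive from a 4-parameter fit.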

KRas WT = biological target: T2, KRas WT (Homo sapiens, UniProt P01116); test: as above; conditions: 60-minute incubation at room temperature, 1% DMSO, pH 7.5
T2 construct: Biotinylated KRas (corresponding to amino acids 1-169, produced at Accelegan Inc.); biotin (biotinylated); purchased Accelegan Inc
Procedure, shortened: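 Tb-streptavidin captured biotinylated KRas (1-169) in HEPES 50 mM, DTT 1 mM, MgCl2 5 mM, Tween-20 0.005% (pH 7.5), alongside tracer and compound at 1% final DMSO. One hour at RT, then read; IC50 from 4-parameter POC fit.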

KRas G12S = biological target: T3, KRas G12S (Homo sapiens, UniProt P01116, G12S); test: as above; conditions: 60-minute incubation at room temperature, 1% DMSO, pH 7.5
T3 construct: Biotinylated KRas (corresponding to amino acids 1-169, produced at Accelegan Inc.); biotin (biotinylated); purchased Accelegan Inc
Procedure, shortened: as §1

[1] = biological target: T4, KRas-mediated phosphorylation of ERK in H358 cells (Homo sapiens, UniProt P01116, G12C); test: Inhibition of KRas-mediated phosphorylation of ERK (HTRF), H358 cells; format: cell-based; conditions: HTRF pERK, 3 h incubation
T4 construct: pERK HTRF read-out

[2] = biological target: T5, KRas-mediated phosphorylation of ERK in MKN1 cells (Homo sapiens, UniProt P01116); test: Inhibition of KRas-mediated phosphorylation of ERK (HTRF), MKN1 cells; format: cell-based; conditions: MKN1 cells (KRas WT); HTRF pERK; 3 h incubation
T5 construct: pERK HTRF read-out
Experimental: Inhibition of KRas Phosphorylation of ERK (HTRF) by Exemplary Compounds of Formula (Ia) or (Ib)
Cisbio HTRF Advanced pERK Assay Catalog #64AERPEH • Cells: MKN1, PSN1 • Procedure: • 1. Day 1: Seed 6,000 cells/well −25 μl/well in 384-well white solid bottom plate; RPM1_10% FBS. Incubate overnight at 37 °C/5% CO2. • 2.

[3] = biological target: T6, KRas-mediated phosphorylation of ERK in A549 cells (Homo sapiens, UniProt P01116, G12S); test: Inhibition of KRas-mediated phosphorylation of ERK (HTRF), A549 cells; format: cell-based; conditions: HTRF pERK, 3 h incubation
T6 construct: pERK HTRF read-out
T6 sequence (P01116 1-188 isoform P01116-2 G12S): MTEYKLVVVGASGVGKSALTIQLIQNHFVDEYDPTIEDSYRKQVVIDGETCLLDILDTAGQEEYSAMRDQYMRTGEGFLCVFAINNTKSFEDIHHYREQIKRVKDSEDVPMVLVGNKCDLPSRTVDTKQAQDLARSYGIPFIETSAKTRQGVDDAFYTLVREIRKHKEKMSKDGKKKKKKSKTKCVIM

T3 sequence (P01116 1-169 isoform P01116-2 G12S): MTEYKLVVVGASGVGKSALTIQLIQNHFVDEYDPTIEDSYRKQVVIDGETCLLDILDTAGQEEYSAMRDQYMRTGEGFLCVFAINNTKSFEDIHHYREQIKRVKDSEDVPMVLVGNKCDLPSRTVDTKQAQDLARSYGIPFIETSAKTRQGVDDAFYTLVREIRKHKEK
T5 sequence (P01116 1-188 isoform P01116-2): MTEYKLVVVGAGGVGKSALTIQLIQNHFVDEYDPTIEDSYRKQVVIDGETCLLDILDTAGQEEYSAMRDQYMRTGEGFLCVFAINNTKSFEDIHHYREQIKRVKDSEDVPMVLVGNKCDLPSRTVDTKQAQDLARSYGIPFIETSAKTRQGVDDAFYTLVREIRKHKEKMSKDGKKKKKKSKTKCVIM
T2 sequence (P01116 1-169 isoform P01116-2): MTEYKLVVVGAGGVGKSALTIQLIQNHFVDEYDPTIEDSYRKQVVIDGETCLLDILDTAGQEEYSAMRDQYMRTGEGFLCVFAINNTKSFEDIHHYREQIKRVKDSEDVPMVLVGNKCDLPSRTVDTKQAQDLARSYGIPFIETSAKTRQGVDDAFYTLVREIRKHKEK
T4 sequence (P01116 1-188 isoform P01116-2 G12C): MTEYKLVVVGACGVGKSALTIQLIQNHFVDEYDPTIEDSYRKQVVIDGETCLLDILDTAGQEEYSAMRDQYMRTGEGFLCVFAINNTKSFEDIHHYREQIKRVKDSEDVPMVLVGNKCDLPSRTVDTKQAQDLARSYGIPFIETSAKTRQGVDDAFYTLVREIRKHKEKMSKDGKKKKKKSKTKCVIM
T1 sequence (P01116 1-169 isoform P01116-2 G12C): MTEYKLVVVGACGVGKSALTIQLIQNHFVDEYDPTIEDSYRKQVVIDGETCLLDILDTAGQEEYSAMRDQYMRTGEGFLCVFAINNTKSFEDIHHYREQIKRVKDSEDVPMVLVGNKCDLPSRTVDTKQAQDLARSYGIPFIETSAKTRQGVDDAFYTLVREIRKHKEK

Row | Structure (SMILES) | IC50 (KRas G12C) | IC50 (KRas WT) | IC50 (KRas G12S) | IC50 [1] | IC50 [2] | IC50 [3]
1 | CCc1c(F)ccc2cc(O)cc(-c3ncc4c(N(C)CCCC(=O)N(C)C(C)=O)nc(OC[C@@]56CCCN5C[C@H](F)C6)nc4c3F)c12 [Example 221, N-acetyl-4-((7-(8-ethyl-7-fluoro-3-hydroxynaphthalen-1-yl)-8-fluoro-2-(((2R,7aS)-2-fluorotetrahydro-1H-pyrrolizin-7a(5H)-yl)methoxy)pyrido[4,3-d]pyrimidin-4-yl)(methyl)amino)-N-methylbutanamide] | 43 nM | 101 nM | 11 nM | 485 nM | 409 nM | 26 nM
2 | Cc1ccn(C(=O)C2CCCN(c3nc(OC[C@@]45CCCN4C[C@H](F)C5)nc4c(F)c(-c5nc(N)ccc5C)c(Cl)cc34)CC2)n1 (stereo partly drawn) [Example 222, (1-(7-(6-amino-3-methylpyridin-2-yl)-6-chloro-8-fluoro-2-(((2R,7aS)-2-fluorotetrahydro-1H-pyrrolizin-7a(5H)-yl)methoxy)quinazolin-4-yl)azepan-4-yl)(3-methyl-1H-pyrazol-1-yl)methanone] | 18300 nM | 29600 nM | 3410 nM | > 10000 nM | 8260 nM | 1970 nM
3 | CCc1c(F)ccc2cc(O)cc(-c3ncc4c(N(C)CCN(C)C(=O)n5cncn5)nc(OC[C@@]56CCCN5C[C@H](F)C6)nc4c3F)c12 [Example 223, N-(2-((7-(8-ethyl-7-fluoro-3-hydroxynaphthalen-1-yl)-8-fluoro-2-(((2R,7aS)-2-fluorotetrahydro-1H-pyrrolizin-7a(5H)-yl)methoxy)pyrido[4,3-d]pyrimidin-4-yl)(methyl)amino)ethyl)-N-methyl-1H-1,2,4-triazole-1-carboxamide] | 42 nM | 164 nM | 53 nM | 17 nM | 569 nM | 2390 nM
4 | CCc1c(F)ccc2cc(O)cc(-c3ncc4c(N5CCC(C(=O)N(C)C(=O)C(C)(C)C)CC5)nc(OC[C@@]56CCCN5C[C@H](F)C6)nc4c3F)c12 [Example 224, 1-(7-(8-ethyl-7-fluoro-3-hydroxynaphthalen-1-yl)-8-fluoro-2-(((2R,7aS)-2-fluorotetrahydro-1H-pyrrolizin-7a(5H)-yl)methoxy)pyrido[4,3-d]pyrimidin-4-yl)-N-methyl-N-pivaloylpiperidine-4-carboxamide] | 526 nM | 177 nM | 257 nM | 1330 nM | 321 nM | 3770 nM
5 | CCc1c(F)ccc2cc(O)cc(-c3ncc4c(N(C)CCNC(=O)n5cncn5)nc(OC[C@@]56CCCN5C[C@H](F)C6)nc4c3F)c12 [Example 225, N-(2-((7-(8-ethyl-7-fluoro-3-hydroxynaphthalen-1-yl)-8-fluoro-2-(((2R,7aS)-2-fluorotetrahydro-1H-pyrrolizin-7a(5H)-yl)methoxy)pyrido[4,3-d]pyrimidin-4-yl)(methyl)amino)ethyl)-1H-1,2,4-triazole-1-carboxamide] | 6 nM | 30 nM | 18 nM | 13 nM | 237 nM | 2730 nM
6 | N#Cc1c(N)sc2c(F)ccc(-c3c(Cl)cc4c(N5CCN(C(=O)n6ccnn6)CC5)nc(OC[C@@]56CCCN5C[C@H](F)C6)nc4c3F)c12 [Example 226, 4-(4-(4-(1H-1,2,3-triazole-1-carbonyl)piperazin-1-yl)-6-chloro-8-fluoro-2-(((2R,7aS)-2-fluorotetrahydro-1H-pyrrolizin-7a(5H)-yl)methoxy)quinazolin-7-yl)-2-amino-7-fluorobenzo[b]thiophene-3-carbonitrile] | < 2 nM | 6 nM | 8 nM | 1 nM | 4 nM | 69 nM
7 | Cc1ccn(C(=O)C2CCCN(c3nc(OCC4(CN(C)C)CC4)nc4c(F)c(-c5ccc(F)c6sc(N)c(C#N)c56)c(Cl)cc34)CC2)n1 (stereo not drawn) [Example 227, 2-amino-4-(6-chloro-2-((1-((dimethylamino)methyl)cyclopropyl)methoxy)-8-fluoro-4-(4-(3-methyl-1H-pyrazole-1-carbonyl)azepan-1-yl)quinazolin-7-yl)-7-fluorobenzo[b]thiophene-3-carbonitrile] | 19 nM | 93 nM | 13 nM | 185 nM | 522 nM | 46 nM
8 | CN(CCNC(=O)n1cncn1)c1nc(OC[C@@]23CCCN2C[C@H](F)C3)nc2c(F)c(-c3ccc(F)c4sc(N)c(C#N)c34)c(Cl)cc12 [Example 228, N-(2-((7-(2-amino-3-cyano-7-fluorobenzo[b]thiophen-4-yl)-6-chloro-8-fluoro-2-(((2R,7aS)-2-fluorotetrahydro-1H-pyrrolizin-7a(5H)-yl)methoxy)quinazolin-4-yl)(methyl)amino)ethyl)-1H-1,2,4-triazole-1-carboxamide] | 3 nM | 13 nM | 8 nM | 9 nM | 252 nM | 448 nM
9 | N#Cc1c(N)sc2c(F)ccc(-c3c(Cl)cc4c(N5CCN(S(=O)(=O)n6nccn6)CC5)nc(OC[C@@]56CCCN5C[C@H](F)C6)nc4c3F)c12 [Example 229, 4-(4-(4-((2H-1,2,3-triazol-2-yl)sulfonyl)piperazin-1-yl)-6-chloro-8-fluoro-2-(((2R,7aS)-2-fluorotetrahydro-1H-pyrrolizin-7a(5H)-yl)methoxy)quinazolin-7-yl)-2-amino-7-fluorobenzo[b]thiophene-3-carbonitrile] | 586 nM | 161 nM | 631 nM | > 10000 nM | 333 nM | > 10000 nM
10 | CCc1c(F)ccc2cc(O)cc(-c3ncc4c(N(C)CCCS(=O)(=O)n5cccn5)nc(OC[C@@]56CCCN5C[C@H](F)C6)nc4c3F)c12 [Example 230, 4-(4-((3-((1H-pyrazol-1-yl)sulfonyl)propyl)(methyl)amino)-8-fluoro-2-(((2R,7aS)-2-fluorotetrahydro-1H-pyrrolizin-7a(5H)-yl)methoxy)pyrido[4,3-d]pyrimidin-7-yl)-5-ethyl-6-fluoronaphthalen-2-ol] | 134 nM | 91 nM | 123 nM | 1500 nM | 394 nM | 4350 nM
11 | N#Cc1c(N)sc2c(F)ccc(-c3c(Cl)cc4c(N5CCN(C(=O)n6ccnc6)CC5)nc(OC[C@@]56CCCN5C[C@H](F)C6)nc4c3F)c12 [Example 231, 4-(4-(4-(1H-imidazole-1-carbonyl)piperazin-1-yl)-6-chloro-8-fluoro-2-(((2R,7aS)-2-fluorotetrahydro-1H-pyrrolizin-7a(5H)-yl)methoxy)quinazolin-7-yl)-2-amino-7-fluorobenzo[b]thiophene-3-carbonitrile] | 5 nM | 13 nM | 17 nM | 4 nM | 25 nM | 444 nM
12 | CN(CCN(C)c1nc(OC[C@@]23CCCN2C[C@H](F)C3)nc2c(F)c(-c3ccc(F)c4sc(N)c(C#N)c34)c(Cl)cc12)C(=O)n1cncn1 [Example 232, N-(2-((7-(2-amino-3-cyano-7-fluorobenzo[b]thiophen-4-yl)-6-chloro-8-fluoro-2-(((2R,7aS)-2-fluorotetrahydro-1H-pyrrolizin-7a(5H)-yl)methoxy)quinazolin-4-yl)(methyl)amino)ethyl)-N-methyl-1H-1,2,4-triazole-1-carboxamide] | 3 nM | 12 nM | 7 nM | 3 nM | 97 nM | 234 nM

— patent US20260356856A1, “KRAS G12S AND G12C INHIBITORS” (MIRATI THERAPEUTICS, INC., priority 2023, published 2026)
